From patent EP4635949A1 (Jiangsu NHWA Pharmaceutical Co., Ltd, priority 2022, dated 2024)
Like-named read-outs stand apart in the source and are kept apart here. Marks after values point to notes of the source that are not given here.

Tests used:
OX1 receptor = target: T1, OX1 receptor (Homo sapiens, UniProt O43613); assay: Orexin target function test (Cisbio HTRF IP-one), CHO-K1-OX1 cells, antagonism of EC80 Orexin A; format: cell-based
T1 construct: host or cells: CHO-K1
T1 sequence (O43613 1-425): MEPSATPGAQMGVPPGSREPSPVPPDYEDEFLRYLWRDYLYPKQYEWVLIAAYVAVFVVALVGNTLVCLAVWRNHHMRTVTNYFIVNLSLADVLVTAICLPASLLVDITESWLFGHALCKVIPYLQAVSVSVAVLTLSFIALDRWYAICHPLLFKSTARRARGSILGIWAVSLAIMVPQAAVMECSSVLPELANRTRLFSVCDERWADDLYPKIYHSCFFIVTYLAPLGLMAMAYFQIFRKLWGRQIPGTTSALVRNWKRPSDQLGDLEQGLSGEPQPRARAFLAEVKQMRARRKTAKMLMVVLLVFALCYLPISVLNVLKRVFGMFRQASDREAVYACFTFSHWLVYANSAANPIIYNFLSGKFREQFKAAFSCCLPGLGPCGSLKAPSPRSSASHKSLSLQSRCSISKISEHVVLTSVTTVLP
Procedure: (§1) Using Cisbio HTRF IP-one kit to detect the changes in IP-one concentration of orexin receptor (OX1/OX2) signaling pathway by microplate reader, and calculating the IC50 value of the compound to evaluate the antagonistic effect of the compound on OX1 and OX2 receptors.
(§2) The cells were centrifuged at 1000 rpm for 5 minutes and the supernatant was discarded. 3 mL of PBS was added, and gently blown with a pipette to mix. After centrifugation at 1000 rpm for 5 minutes again, the supernatant was discarded. […] Based on the antagonistic effect values of the compound samples at different concentrations, the GraphPad Prism software was used to fit the orexin receptor antagonism curve of the compound samples and calculate the IC50.

OX2 receptor = target: T2, OX2 receptor (Homo sapiens, UniProt O43614); assay: Orexin target function test (Cisbio HTRF IP-one), CHO-K1-OX2 cells, antagonism of EC80 Orexin 2 receptor agonist; format: cell-based
T2 construct: host or cells: CHO-K1
T2 sequence (O43614 1-444): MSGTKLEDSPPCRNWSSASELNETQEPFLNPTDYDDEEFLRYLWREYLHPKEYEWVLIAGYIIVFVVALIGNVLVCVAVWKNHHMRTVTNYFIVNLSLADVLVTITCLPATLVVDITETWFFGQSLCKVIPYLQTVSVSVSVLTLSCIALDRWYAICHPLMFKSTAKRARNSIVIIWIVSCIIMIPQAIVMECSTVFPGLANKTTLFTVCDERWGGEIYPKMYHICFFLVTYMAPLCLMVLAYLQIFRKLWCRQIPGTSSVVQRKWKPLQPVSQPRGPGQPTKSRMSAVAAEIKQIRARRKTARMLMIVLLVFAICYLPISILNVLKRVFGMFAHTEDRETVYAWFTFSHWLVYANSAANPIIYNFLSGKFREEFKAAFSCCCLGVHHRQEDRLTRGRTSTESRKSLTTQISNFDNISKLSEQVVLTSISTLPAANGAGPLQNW
Procedure: as §1, §2

SD rats = assay: Autonomous activity of rats; format: in vivo
Procedure: The animals were placed in the test box immediately after administration, and the activity distance of the animals within 60 minutes was recorded and analyzed using Top Scan Version 3.0. […] The experimental data were expressed by mean ± standard deviation (Mean ± SD), and SPSS 21.0 statistical software was used for one-way analysis of variance. The Dunnett's test was used for pairwise comparison, and p<0.05 was represented as *.

in vivo = conditions: rat
[1] = Blood-brain barrier permeability of the test substance in rats; conditions: male, SD, rat, oral, 30 mg/kg
Procedure: Twelve male SD rats were randomly divided into 4 groups, with 3 rats in each group. They were fasted for 8 hours before the test and had free access to water. The rats were intragastrically administered with 30 mg/kg of the test substance solution, and 0.3 mL of blood was collected from the jugular venous plexus of the rats before and 0.25 hours after administration. The rats were then anesthetized, the chest cavity was opened, the right atrial appendage was cut, and the blood was rapidly perfused from the back of the left ventricle. When the outflowing liquid was transparent and bloodless, the perfusion could be stopped, and the brain tissue was removed, dried with filter paper, weighed, and homogenized with an appropriate amount of physiological saline (1:4, v/v) to prepare a brain tissue homogenate. The whole blood sample was centrifuged at 4000 r/min for 10 min to separate the plasma.
The established LC-MS/MS method is used to detect the concentration of the test substance in plasma and brain tissue homogenate. The brain-to-blood ratio (Kb/p) of the test substance can be obtained by dividing the drug concentration in brain tissue by the drug concentration in plasma.

[2] = CHO-K1-OX1 cells, IP-one, read-out: hOXIR IC50
[3] = CHO-K1-OX2 cells, IP-one, read-out: hOX2R IC50
[4] = male SD rats, dose 10 mg/kg, versus blank vehicle group
[5] = male SD rats, dose 10 mg/kg, within 60 minutes, Mean ± SD
[6] = male SD rats, dose 30 mg/kg, versus blank vehicle group
[7] = male SD rats, dose 30 mg/kg, within 60 minutes, Mean ± SD
[8] = male SD rats, dose 50 mg/kg, versus blank vehicle group
[9] = male SD rats, dose 50 mg/kg, within 60 minutes, Mean ± SD
[10] = ratio of OX1R IC50 to OX2R IC50

Structure (SMILES) | IC50 (OX1 receptor; [2]) | Selectivity (OX2 receptor) | IC50 (OX2 receptor; [3]) | AUC(0-t) (in vivo; male, SD, plasma, iv, 1 mg/kg) | Cmax (in vivo; male, SD, plasma, iv, 1 mg/kg) | AUC(0-t) (in vivo; male, SD, plasma, po, 30 mg/kg) | Cmax (in vivo; male, SD, plasma, po, 30 mg/kg) | bioavailability (in vivo; male, SD, plasma, po, 30 mg/kg) | Selectivity (OX2 receptor; [10]) | other results
Cc1nc(C2=CC3CN(C(=O)c4c(F)cccc4-n4nccn4)CC3C2)nc(C)c1F (stereo not drawn) [Compound 1, (5-(5-fluoro-4,6-dimethylpyrimidin-2-yl)-3,3a,4,6a-tetrahydrocyclopenta[c]pyrrol-2(1H)-yl)(2-fluoro-6-(2H-1,2,3-triazol-2-yl)phenyl)methanone] | 1130 nM | 80 | 14 nM | – | – | – | – | – | – | Inhibition rate(%) (SD rats; [4]): 16.33%; Activity distance (mm) (SD rats; [5]): 59434.65±1478.32 mm; Inhibition rate(%) (SD rats; [6]): 23.37* %; Activity distance (mm) (SD rats; [7]): 54433.35±3341.26 mm; Inhibition rate(%) (SD rats; [8]): 59.81* %; Activity distance (mm) (SD rats; [9]): 28548.56±1238.05 mm
Cc1nc(C2=CC3CN(C(=O)c4ccc(F)cc4-n4nccn4)CC3C2)nc(C)c1F (stereo not drawn) [Compound 2, (4-fluoro-2-(2H-1,2,3-triazol-2-yl)phenyl)(5-(5-fluoro-4,6-dimethylpyrimidin-2-yl)-3,3a,4,6a-tetrahydrocyclopenta[c]pyrrol-2(1H)-yl)methanone] | – | 128 | – | 869 ng·h/mL | 1880 ng/mL | 15000 ng·h/mL | 7480 ng/mL | 57.6% | – | IC50 (OX1 receptor): 2300 nM; IC50 (OX2 receptor): 18 nM; Activity distance (mm) (SD rats; rat, in vivo, 10 mg/kg): 52097.9±18671.68 mm; Inhibition rate(%) (SD rats; rat, in vivo, 10 mg/kg): 26.66* %; Activity distance (mm) (SD rats; rat, in vivo, 30 mg/kg): 46276.83±15906.44 mm; Inhibition rate(%) (SD rats; rat, in vivo, 30 mg/kg): 34.85 * %; Activity distance (mm) (SD rats; rat, in vivo, 50 mg/kg): 37866.51±7149.48 mm; Inhibition rate(%) (SD rats; rat, in vivo, 50 mg/kg): 46.69* %
COc1ccc(C(=O)N2CC3C=C(c4nc(C)c(F)c(C)n4)CC3C2)c(-n2nccn2)c1 (stereo not drawn) [Compound 5, (5-(5-fluoro-4,6-dimethylpyrimidin-2-yl)-3,3a,4,6a-tetrahydrocyclopenta[c]pyrrol-2(1H)-yl)(4-methoxy-2-(2H-1,2,3-triazol-2-yl)phenyl)methanone] | – | 171 | – | 738 ng·h/mL | 1600 ng/mL | 18500 ng·h/mL | 13800 ng/mL | 83.6% | – | IC50 (OX1 receptor): 2800 nM; IC50 (OX2 receptor): 16 nM; Activity distance (mm) (SD rats; rat, in vivo, 10 mg/kg): 44396.01±2185.62 mm; Inhibition rate(%) (SD rats; rat, in vivo, 10 mg/kg): 37.50* %; Activity distance (mm) (SD rats; rat, in vivo, 30 mg/kg): 32526.47±1464.45 mm; Inhibition rate(%) (SD rats; rat, in vivo, 30 mg/kg): 45.79* %
COc1nc(C2=CC3CN(C(=O)c4c(F)cccc4-n4nccn4)CC3C2)nc(C)c1F (stereo not drawn) [Compound 8, (5-(5-fluoro-4-methoxy-6-methylpyrimidin-2-yl)-3,3a,4,6a-tetrahydrocyclopenta[c]pyrrol-2(1H)-yl)(2-fluoro-6-(2H-1,2,3-triazol-2-yl)phenyl)methanone] | 1240 nM | – | 12 nM | 808 ng·h/mL | 3220 ng/mL | 16900 ng·h/mL | 13800 ng/mL | 69.8% | 100 | –
Cc1nc(C2=CC3CN(C(=O)c4c(F)cccc4-n4nccn4)CC3C2)nc2c1COC2 (stereo not drawn) [Compound 20, (2-fluoro-6-(2H-1,2,3-triazol-2-yl)phenyl)(5-(4-methyl-5,7-dihydrofuro[3,4-d]pyrimidin-2-yl)-3,3a,4,6a-tetrahydrocyclopenta[c]pyrrol-2(1H)-yl)methanone] | 3170 nM | – | 24.5 nM | – | – | – | – | – | 129 | Inhibition rate(%) (SD rats; [4]): 14.67%; Activity distance (mm) (SD rats; [5]): 60610.23±1657.26 mm; Inhibition rate(%) (SD rats; [6]): 24.24* %; Activity distance (mm) (SD rats; [7]): 53815.36±1401.21 mm; Inhibition rate(%) (SD rats; [8]): 31.17* %; Activity distance (mm) (SD rats; [9]): 48892.70±2164.16 mm
COc1cc(-n2nccn2)c(C(=O)N2CC3C=C(c4nc(C)c(F)c(C)n4)CC3C2)cn1 (stereo not drawn) [Compound 22] | – | 185 | – | – | – | – | – | – | – | IC50 (OX1 receptor): 2780 nM; IC50 (OX2 receptor): 15 nM; Activity distance (mm) (SD rats; rat, in vivo, 10 mg/kg): 43970.97±9243.91 mm; Inhibition rate(%) (SD rats; rat, in vivo, 10 mg/kg): 38.10* %; Activity distance (mm) (SD rats; rat, in vivo, 30 mg/kg): 37396.46±6850.26 mm; Inhibition rate(%) (SD rats; rat, in vivo, 30 mg/kg): 47.35* %; Activity distance (mm) (SD rats; rat, in vivo, 50 mg/kg): 33132.59±9708.72 mm; Inhibition rate(%) (SD rats; rat, in vivo, 50 mg/kg): 56.36* %; AUC(0-t) (in vivo; in vivo, iv, 1 mg/kg): 305 ng·h/mL; Cmax (in vivo; in vivo, iv, 1 mg/kg): 943 ng/mL; AUC(0-t) (in vivo; in vivo, po, 30 mg/kg): 2640 ng·h/mL; Cmax (in vivo; in vivo, po, 30 mg/kg): 1940 ng/mL; bioavailability (in vivo; in vivo, po, 30 mg/kg): 28.9%
CCOc1ccc(C(=O)N2CC3C=C(c4nc(C)cnc4OC)CC3C2)c(-n2nccn2)c1 (stereo not drawn) [Compound 45, [4-ethoxy-2-(2H-1,2,3-triazol-2-yl)phenyl][5-(3-methoxy-6-methylpyrazin-2-yl)-3,3a,4,6a-tetrahydrocyclopenta[c]pyrrol-2(1H)-yl]methanone] | 3000 nM | – | 25 nM | 1560 ng·h/mL | 2520 ng/mL | 36000 ng·h/mL | 19600 ng/mL | 77.1% | 125 | –
CCOc1ncc(C)nc1C1=CC2CN(C(=O)c3ccc(OC)cc3-n3nccn3)CC2C1 (stereo not drawn) [Compound 46, [5-(3-ethoxy-6-methylpyrazin-2-yl)-3,3a,4,6a-tetrahydrocyclopenta[c]pyrrol-2(1H)-yl][4-methoxy-2-(2H-1,2,3-triazol-2-yl)phenyl]methanone] | – | – | – | – | – | – | – | – | – | concentration at 0.25 h ([1]; brain): 210 ng/g; Kp at 0.25 h ([1]; brain/plasma): 0.43; concentration at 0.25 h ([1]; plasma): 485 ng/mL
COc1ccc(C(=O)N2CC3C=C(c4nc(C)cnc4OC)CC3C2)c(-c2ncccn2)c1 (stereo not drawn) [Compound 48, [4-methoxy-2-(pyrimidin-2-yl)phenyl][5-(3-methoxy-6-methylpyrazin-2-yl)-3,3a,4,6a-tetrahydrocyclopenta[c]pyrrol-2(1H)-yl]methanone] | 3250 nM | – | 21 nM | 886 ng·h/mL | 3310 ng/mL | 10100 ng·h/mL | 9410 ng/mL | 37.8% | 154 | –
[2H]C([2H])([2H])Oc1ncc(C)nc1C1=CC2CN(C(=O)c3ccc(OC)cc3-n3nccn3)CC2C1 (stereo not drawn) [Compound 58, [4-methoxy-2-(2H-1,2,3-triazol-2-yl)phenyl][5-[3-(methoxy-d3)-6-methylpyrazin-2-yl]-3,3a,4,6a-tetrahydrocyclopentyl[c]pyrrol-2(1H)-yl]methanone] | 1980 nM | – | 24 nM | – | – | – | – | – | 83 | –
COc1ccc(C(=O)N2CC3C=C(c4nc(CF)cnc4OC)CC3C2)c(-n2nccn2)c1 (stereo not drawn) [Compound 59, [5-[6-(fluoromethyl)-3-methoxypyrazin-2-yl]-3,3a,4,6a-tetrahydrocyclopentyl[c]pyrrol-2(1H)-yl][4-methoxy-2-(2H-1,2,3-triazol-2-yl)phenyl]methanone] | 1800 nM | – | 17 nM | – | – | – | – | – | 106 | –
COc1ncc(C)nc1C1=CC2CN(C(=O)c3ccc(F)cc3-n3cccn3)CC2C1 (stereo not drawn) [Compound 61, [4-fluoro-2-(1H-pyrazol-1-yl)phenyl][5-(3-methoxy-6-methylpyrazin-2-yl)-3,3a,4,6a-tetrahydrocyclopenta[c]pyrrol-2(1H)-yl]methanone] | 2100 nM | 150 | 14 nM | 737 ng·h/mL | 1920 ng/mL | 5400 ng·h/mL | 5690 ng/mL | 24.4% | – | –
Cc1cnc(C#N)c(C2=CC3CN(C(=O)c4ccc(F)cc4-n4nccn4)CC3C2)n1 (stereo not drawn) [Compound 62, 3-[2-[4-fluoro-2-(2H-1,2,3-triazol-2-yl)benzoyl]-1,2,3,3a,4,6a-hexahydrocyclopenta[c]pyrrol-5-yl]-5-methylpyrazine-2-carbonitrile] | 1650 nM | – | 18 nM | – | – | – | – | – | 92 | –
